Measurements from patent US20040209850A1, “Methods of treating pain and compositions for use therefor” (TheraQuest Biosciences, LLC, priority 2003, published 2004).

How the values were obtained:
mouse = test: Chemically-induced (acetic acid) abdominal constrictions in the mouse; format: in vivo; conditions: mean ± S.E.M.
Description: Albuterol or vehicle 1 was dosed intraperitoneally (−25 min), followed by a subcutaneous dose of indomethacin or vehicle 2 (−20 min), prior to acetic acid (0.7% v/v) administration (0 min).

rat = test: Tail-flick test: antinociception of albuterol, morphine and morphine plus albuterol (% MPE, A50); format: in vivo
Source text: The tail flick test was first described by D'Amour and Smith (1941), and remains essentially unchanged in application. (See generally D'Amour, F. E. and Smith, D. L., “A method for determining loss of pain sensation”, J. Pharmacol. Exp. Therap., 72:74-79(1941); Dewey, D. L. and Harris, L. S., The Tail-flick test. In: S. Ehrenpreis and A. Neidle (Eds.), Methods in Narcotic Research, Marcel Dekker, Inc., New York, 1975, pp. 101-109; and Dubner, R. and Ren, K., “Assessing transient and persistent pain in animals.” In: P. D. Wall and R. Melzack (Eds.), Textbook of Pain, Churchill Livingstone, London, 1999, pp. 359-369). Quite simply, the tail of a rat or mouse is exposed to radiant heat, and the latency to withdraw is determined. The basal heat intensity is set so that naive rats withdraw their tails within 2 to 3 sec. A cut-off latency of 10 sec (i.e., 3 to 4 times basal control value) is commonly employed to prevent tissue damage. An alternative to using radiant heat is to dip the tail into a water bath maintained at a fixed temperature, usually in the moderately noxious range of about 52° C. or 55° C. One advantage of a water bath is that the temperature is kept constant.
The tail-flick test is considered to be very robust in that weak analgesic agents are not detected by this test. […] It is even possible to perform the tail-flick test in lightly anesthetized animals.
Data obtained from the rat tail-flick test conform to a graded dose-response curve. The raw tail withdrawal latencies are converted to a % MPE (% maximal possible effect) by the formula:
% MPE=100×(test latency−basal latency)/(cut-off−basal latency).
This formula constrains the data to fit between 0% MPE and 100% MPE. […] These calculations then allow for the determination of relative potencies of different drugs and allow for the isobolographic determination of possible synergistic effects. Instances where the test latency is less than the basal latency produces a negative % MPE, which is meaningless unless one is measuring hyperalgesia.
Absent any interaction, the dose-effect curves for morphine alone and in the presence of albuterol should be identical.
This manipulation allowed the construction of dose-effect curves and more importantly, the calculation of the A50 (dose required to produce a 50% effect) and the confidence intervals. The data were converted to % MPE based on the equation:
% MPE=(response−baseline)/(8.2−baseline)×100.
Baseline refers to the pre-treatment tail-flick latencies, and 8.2 represents the maximal effect. […] The A50 values and confidence intervals for each of the dose-effect curves were determined from linear regression analysis of the logdose-effect curves. Significant shifts in the dose-effect curves were indicated by Student's t-statistic applied to the A50 values obtained for morphine and morphine plus albuterol, and was performed with our custom-designed data analysis software.
The SEM values are approximate and are derived as a ratio of the SEM of the raw data to the respective mean and adjusted as a function of % MPE.

Structure (SMILES): COc1ccc2c(c1)c(CC(=O)O)c(C)n2C(=O)c1ccc(Cl)cc1 [Indomethacin]
- Number of Abdominal Constrictions Exhibited in Time Period (min) Post Acetic Acid (mouse; indomethacin 0.1 mg/kg s.c., 5-10 min): 14.3 ± 2.6
- Number of Abdominal Constrictions Exhibited in Time Period (min) Post Acetic Acid (mouse; indomethacin 0.1 mg/kg s.c., 5-15 min): 23.6 ± 3.7
- Number of Abdominal Constrictions Exhibited in Time Period (min) Post Acetic Acid (mouse; indomethacin 1 mg/kg s.c., 5-10 min): 7.5 ± 2.0
- Number of Abdominal Constrictions Exhibited in Time Period (min) Post Acetic Acid (mouse; indomethacin 1 mg/kg s.c., 5-15 min): 14.5 ± 2.9
- Number of Abdominal Constrictions Exhibited in Time Period (min) Post Acetic Acid (mouse; indomethacin 3 mg/kg s.c., 5-10 min): 6.8 ± 1.7
- Number of Abdominal Constrictions Exhibited in Time Period (min) Post Acetic Acid (mouse; indomethacin 3 mg/kg s.c., 5-15 min): 12.2 ± 3.1
- Number of Abdominal Constrictions Exhibited in Time Period (min) Post Acetic Acid (mouse; indomethacin 5 mg/kg s.c., 5-10 min): 8.3 ± 2.0
- Number of Abdominal Constrictions Exhibited in Time Period (min) Post Acetic Acid (mouse; indomethacin 5 mg/kg s.c., 5-15 min): 14.1 ± 3.4
- Number of Abdominal Constrictions Exhibited in Time Period (min) Post Acetic Acid (mouse; indomethacin 10 mg/kg s.c., 5-10 min): 6.8 ± 1.7
- Number of Abdominal Constrictions Exhibited in Time Period (min) Post Acetic Acid (mouse; indomethacin 10 mg/kg s.c., 5-15 min): 11.9 ± 2.9
- Number of Abdominal Constrictions Exhibited in Time Period (min) Post Acetic Acid (mouse; indomethacin 30 mg/kg s.c., 5-10 min): 10.5 ± 2.3
- Number of Abdominal Constrictions Exhibited in Time Period (min) Post Acetic Acid (mouse; indomethacin 30 mg/kg s.c., 5-15 min): 17.6 ± 3.2
- Number of Abdominal Constrictions Exhibited in Time Period (min) Post Acetic Acid (mouse; indomethacin 50 mg/kg s.c., 5-10 min): 1.4 ± 0.6
- Number of Abdominal Constrictions Exhibited in Time Period (min) Post Acetic Acid (mouse; indomethacin 50 mg/kg s.c., 5-15 min): 4.5 ± 1.3

Structure (SMILES): CN1CC[C@]23c4c5ccc(O)c4O[C@H]2[C@@H](O)C=C[C@H]3[C@H]1C5 [Morphine]
- A50 (95% confidence interval), dose required to produce a 50% effect (rat; 30 minutes after injection): 4.53 mg/kg
- A50 (95% confidence interval), dose required to produce a 50% effect (rat; 30 minutes after injection, listed as Morphine alone): 4.53 (3.92 to 5.24) mg/kg
- A50 (95% confidence interval), dose required to produce a 50% effect (rat; 60 minutes after injection): 9.94 mg/kg
- A50 (95% confidence interval), dose required to produce a 50% effect (rat; 60 minutes after injection, listed as Morphine alone): 9.94 (9.84 to 10.04) mg/kg
- dose-dependency of antinociception (FIG. 1) (rat; dose-effect curves as % MPE): demonstrated dose-dependent antinociception
- antinociceptive effect (in words) (rat; morphine 0.3 mg/kg to 2.5 mg/kg): minimal effects
- Antinociceptive effect (as % MPE) (rat; morphine alone 0.3125 mg/kg, 30 minutes): 25.86 ± 3.31 % MPE
- Antinociceptive effect (as % MPE) (rat; morphine alone 0.3125 mg/kg, 60 minutes): 24.14 ± 1.27 % MPE
- Antinociceptive effect (as % MPE) (rat; morphine alone 0.625 mg/kg, 30 minutes): 22.41 ± 1.82 % MPE
- Antinociceptive effect (as % MPE) (rat; morphine alone 0.625 mg/kg, 60 minutes): 20.69 ± 1.72 % MPE
- Antinociceptive effect (as % MPE) (rat; morphine alone 1.25 mg/kg, 30 minutes): 33.33 ± 2.27 % MPE
- Antinociceptive effect (as % MPE) (rat; morphine alone 1.25 mg/kg, 60 minutes): 19.3 ± 2.14 % MPE
- Antinociceptive effect (as % MPE) (rat; morphine alone 2.5 mg/kg, 30 minutes): 28.57 ± 2.04 % MPE
- Antinociceptive effect (as % MPE) (rat; morphine alone 2.5 mg/kg, 60 minutes): 21.43 ± 1.69 % MPE
- Antinociceptive effect (as % MPE) (rat; morphine alone 5 mg/kg, 30 minutes): 44.07 ± 3.6 % MPE
- Antinociceptive effect (as % MPE) (rat; morphine alone 5 mg/kg, 60 minutes): 13.56 ± 2.19 % MPE
- Antinociceptive effect (as % MPE) (rat; morphine alone 10 mg/kg, 30 minutes): 91.07 ± 14.19 % MPE
- Antinociceptive effect (as % MPE) (rat; morphine alone 10 mg/kg, 60 minutes): 50 ± 9.26 % MPE
